Values after ≈ are worked out from the molar mass of the structure shown. Read-outs that look alike come from different tables or passages of the source.
How the values were obtained:
EfaUPPS (R42A) [1] = molecular target: T1, EfaUPPS (R42A) (Enterococcus faecalis, UniProt Q831K9, R48A); experiment: UPPS inhibition assay, EfaUPPS R42A mutant; assay type: biochemical; conditions: for effect of mutation on inhibitory effect of compound on EfaUPPS enzyme activity: R42A mutant compared with wild-type
T1 construct: His tag; made in house; host or cells: E. coli BL21(DE3)
Description: (§1) The EfaUPPS site-directed mutagenesis was generated using QuikChange site-directed mutagenesis kit (Agilent) according to the manufacturer’s instructions. The purification of site-directed mutation was using a similar strategy as described above.
(§2) The UPPS inhibition assay was carried out by measuring the fluorescence of the reaction mixture in a black 96-well microtiter plate (Corning, United States). […] After the indicated incubation period, the reaction was terminated by the addition of 10 μl of 0.5 M EDTA solution. Transferred 50 μl of the reaction mixture into a new 96-well microtiter plate, and quenched with an equal volume of Master Reaction Mix (Pyrophosphate Assay Kit, Sigma-Aldrich, USA) for 30 min. The UPPS inhibitory activity was performed by calculating the fluorescence percentage through determining the fluorescence absorbance of reaction mixture at 316 and 456 nm. Data of UPPS inhibitory activities were plotted versus compound concentrations on a semi-log scale using GraphPad Prism7. All the results were the means of at least three biological replicates.

EfaUPPS (R42A) [2] = molecular target: T1, EfaUPPS (R42A); experiment: Microscale thermophoresis binding assay, EfaUPPS R42A
Description: (§3) To characterize the binding affinity between EfaUPPS and GA or NGA, the MST binding assay was performed as previously described ([Lin et al., 2020]). In brief, His-tagged EfaUPPS and site-directed mutated EfaUPPS were labeled with the NT- 647-NHS dye using the Monolith NTTM Protein Labeling Kit RED-NHS (NanoTemper Technologies). Two-fold serially diluted GA or NGA was mixed with 10 nM of labeled EfaUPPS or its derivatives in 10 μl of binding buffer (137 mM NaCl, 2.7 mM KCl, 10 mM Na2HPO4, 1.8 mM KH2PO4, and 0.05% Tween-20, pH 7.8), incubated for 15 min, at room temperature. And then, loaded the mixtures into NT.115 premium coated capillaries (NanoTemper Technologies). MST trace signals were collected from the IR laser on to off for about 20 s, under the 5% LED power and high MST power mode. The change of molecular thermophoresis was monitored by standardized fluorescence value Fnorm, and the binding curve was plotted according to the values of Fnorm. The formed complex affinity was analyzed by MO Affinity Analysis software version 2.3. Apparent dissociation constants (Kd) were calculated using nonlinear fitting assuming one specific binding site with the GraphPad Prism 7 software with the following formula: Y = B^∗Max X/KD + X.
(§4) (^∗ where BMax is the maximum theoretical specific binding; here BMax = 1).

[3] = tested on: Escherichia coli ATCC25922; experiment: MIC, microtiter broth dilution; assay type: cell-based; conditions: Escherichia coli
Description: (§5) Antibacterial activities were performed by examining the minimal inhibitory concentrations (MICs), which was determined by a microtiter broth dilution method as previously described ([Cotsonas King and Wu, 2009]), with minor modifications. Briefly, 96-well plates (Corning) were inoculated with 100 μl of LB broth per well containing 7 × 10^5 CFU/mL bacteria, followed by adding 100 μl of LB broth containing two-fold serial dilutions of the test compounds. […] After 18 h of incubation, the MIC was determined to be the lowest concentration without visible bacterial growth. The results were the averages of at least three biological replicates.

[4] = tested on: Staphylococcus aureus ATCC29213; experiment: MIC, microtiter broth dilution; assay type: cell-based; conditions: Staphylococcus aureus
Description: as §5

[5] = tested on: Listeria monocytogenes ATCC19117; experiment: MIC, microtiter broth dilution; assay type: cell-based; conditions: Listeria monocytogenes
Description: as §5

[6] = tested on: Enterococcus faecalis ATCC29212; experiment: MIC, microtiter broth dilution; assay type: cell-based; conditions: Enterococcus faecalis
Description: as §5

MRSA = experiment: MIC, microtiter broth dilution; assay type: cell-based, Staphylococcus aureus; conditions: Staphylococcus aureus, MRSA, 18 h
Description: as §5

EfaUPPS (L146A) = molecular target: T2, EfaUPPS (L146A) (Enterococcus faecalis, UniProt Q831K9, L152A); experiment: UPPS inhibition assay, EfaUPPS L146A mutant; assay type: biochemical; conditions: for effect of mutation on inhibitory effect of compound on EfaUPPS enzyme activity: L146A mutant compared with wild-type; for IC50 fold higher than that of the wild-type: L146A mutant vs wild-type (~3 μM)
T2 construct: His tag; made in house; host or cells: E. coli BL21(DE3)
Description: as §1, §2

E. faecalis infection = experiment: E. faecalis infected mouse model; assay type: in vivo, C57BL/6 J mice; conditions: oral dose (40 μM), 19 days
Description: All animal studies had been reviewed and approved by the Animal Ethical and Welfare Committee of Nanjing University of Chinese Medicine. 8-week-old male C57BL/6 J mice were housed in groups of four mice per cage in a 12/12-h day light cycle with free access to food and water under conditions of controlled humidity (50 ± 5%) and temperature (22 ± 2°C). Mice were adaptively raised for a week before experiments. To explore the effects of GA and NGA on E. faecalis, the mice were randomly divided into four groups including control, E. faecalis, E. faecalis + GA and E. faecalis + NGA. Mice received an oral dose (40 μM) of GA or NGA from 30 min after E. faecalis (1 × 10^10 CFU) treatment for 19 days to sacrifice. The body weight of the mice was monitored daily. Afterwards mice spleens were collected and spleen weight was measured upon being sacrificed.
Spleen tissue sections of mice were fixed in 4% paraformaldehyde, dehydrated in alcohol, embedded in paraffin and then sliced into thin 5 μm sections. The tissues were then stained with hematoxylin & eosin (H&E). The tissue images were observed under an inverted microscope (Vectra 3.0, PerkinElmer, United States).
Retro-orbital blood was collected from the mice in asepsis tubes before dissection. The blood was centrifuged at 3500 g for 20 min to extract serum, which was stored at −20°C awaiting subsequent analyses. TNF-α-levels in serum was measured by ELISA according to the instructions of the manufacturer (eBioscience, United States).
Total RNA was extracted from the spleen of mice, and then the cDNA was synthesized with HiScript® II Q RT SuperMix for qPCR (Vazyme, China). qPCR was performed using the LightCycler®96 (Roche, Swiss). The qPCR primers of TNF-α (Forward: 5’-[…]-3′ and Reverse: 5’-[…]-3′) were designed and synthesized by GENERAY Biotechnology (Shanghai, China). GAPDH was used as the reference gene.

Escherichia coli DH5α = experiment: microbe, parasite or virus in culture; assay type: cell-based; conditions: Escherichia coli, 18 h
Description: as §5

Escherichia coli BAS 849 = experiment: microbe, parasite or virus in culture; assay type: cell-based; conditions: Escherichia coli
Description: as §5

[7] = tested on: Escherichia coli BL21 (DE3); experiment: microbe, parasite or virus in culture; assay type: cell-based; conditions: Escherichia coli, 18 h
Description: as §5

EfaUPPS (K47A) = molecular target: T3, EfaUPPS (K47A) (Enterococcus faecalis, UniProt Q831K9, K53A); experiment: Microscale thermophoresis binding assay, EfaUPPS K47A
T3 construct: His tag; made in house; host or cells: E. coli BL21(DE3)
Description: as §3, §4

T3 sequence (Q831K9 whole entry K53A): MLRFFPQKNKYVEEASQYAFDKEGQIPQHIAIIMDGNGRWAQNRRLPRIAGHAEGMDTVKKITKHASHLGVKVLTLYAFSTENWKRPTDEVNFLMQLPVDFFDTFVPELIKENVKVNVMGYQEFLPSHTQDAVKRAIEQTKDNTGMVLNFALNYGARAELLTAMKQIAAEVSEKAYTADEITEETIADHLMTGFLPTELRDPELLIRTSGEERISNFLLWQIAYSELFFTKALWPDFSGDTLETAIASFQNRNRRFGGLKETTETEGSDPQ
T1 sequence (Q831K9 whole entry R48A): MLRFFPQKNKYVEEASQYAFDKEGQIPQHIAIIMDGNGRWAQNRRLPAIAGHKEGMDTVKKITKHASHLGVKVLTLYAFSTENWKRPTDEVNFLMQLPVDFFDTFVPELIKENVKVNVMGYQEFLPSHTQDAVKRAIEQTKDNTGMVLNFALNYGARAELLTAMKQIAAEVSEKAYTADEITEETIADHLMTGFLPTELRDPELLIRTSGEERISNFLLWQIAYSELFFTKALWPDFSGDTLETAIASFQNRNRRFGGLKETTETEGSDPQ
T2 sequence (Q831K9 whole entry L152A): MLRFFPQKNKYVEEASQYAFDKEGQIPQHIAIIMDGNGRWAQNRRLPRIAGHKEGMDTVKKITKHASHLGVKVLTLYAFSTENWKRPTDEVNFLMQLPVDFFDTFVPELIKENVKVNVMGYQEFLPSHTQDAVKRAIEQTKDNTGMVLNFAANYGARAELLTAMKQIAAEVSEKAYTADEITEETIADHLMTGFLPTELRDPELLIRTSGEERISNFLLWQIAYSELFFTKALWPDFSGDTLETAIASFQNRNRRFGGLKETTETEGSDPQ

**Q.** `CC(C)=CCC[C@]1(C)C=Cc2c(O)c3c(c(CC=C(C)C)c2O1)O[C@]12C(=C[C@@H]4C[C@H]1C(C)(C)O[C@@]2(C/C=C(/C)C(=O)O)C4=O)C3=O` [GA, gambogic acid] was tested. Which IC50 (EfaUPPS (R42A) [1]) did it give?
**A.** 5.39 µM

**Q.** And the “effect of mutation on inhibitory effect of compound on EfaUPPS enzyme activity” value (EfaUPPS (R42A) [1])?
**A.** does not have significant impact

**Q.** What about the Kd (EfaUPPS (R42A) [2]) of the same compound?
**A.** 40.5 ± 17.2 µM

**Q.** What about the MIC ([3]; ATCC25922, LB broth, 18 h, read-out: MIC) of the same compound?
**A.** > 64 µg/mL

**Q.** What about the MIC ([4]; ATCC29213, LB broth, 18 h, read-out: MIC) of the same compound?
**A.** 2 µg/mL (≈ 3.18 µM)

**Q.** What about the MIC ([5]; ATCC19117, LB broth, 18 h, read-out: MIC) of the same compound?
**A.** 4 µg/mL (≈ 6.36 µM)

**Q.** And the MIC ([6]; ATCC29212, LB broth, 18 h, read-out: MIC)?
**A.** 2 µg/mL (≈ 3.18 µM)

**Q.** And the MIC (MRSA; LB broth, read-out: MIC)?
**A.** 4 µg/mL (≈ 6.36 µM)

**Q.** What about the IC50 (EfaUPPS (L146A)) of the same compound?
**A.** ~30 µM

**Q.** And the “effect of mutation on inhibitory effect of compound on EfaUPPS enzyme activity” value (EfaUPPS (L146A))?
**A.** significantly decreased

**Q.** And the “IC50 fold higher than that of the wild-type” value (EfaUPPS (L146A))?
**A.** about 10 fold

**Q.** What about the “body weight of E. faecalis infection mice” value (E. faecalis infection) of the same compound?
**A.** no observable effect

**Q.** And the “spleen inflammation (H&E spleen slides)” value (E. faecalis infection)?
**A.** reduced signs of inflammation

**Q.** What about the “splenomegaly (spleen weight)” value (E. faecalis infection) of the same compound?
**A.** significantly relieved splenomegaly

**Q.** And the MIC (Escherichia coli DH5α; LB broth, read-out: MIC)?
**A.** > 64 µg/mL

**Q.** And the MIC (Escherichia coli BAS 849; BAS849, LB broth, 18 h, strain with deficient outer-membrane structure, read-out: MIC)?
**A.** 8 µg/mL (≈ 12.7 µM)

**Q.** And the MIC ([7]; LB broth, read-out: MIC)?
**A.** > 64 µg/mL

**Q.** What about the Kd (EfaUPPS (K47A)) of the same compound?
**A.** 4.61 ± 2.62 µM

**Q.** And the “Kd fold lower than that of the wild-type” value (EfaUPPS (K47A); K47A vs wild-type)?
**A.** about 6 fold

**Q.** How did the “effect of mutation on inhibitory effect of compound on EfaUPPS enzyme activity” value (EfaUPPS (R42A) [1]) turn out when `CC(C)=CCC[C@]1(C)CC(O)c2c(O)c3c(c(CC=C(C)C)c2O1)O[C@]12C(=C[C@@H]4C[C@H]1C(C)(C)O[C@@]2(C/C=C(/C)C(=O)O)C4=O)C3=O` (stereo partly shown) [NGA, neogambogic acid] was run?
**A.** significantly reduced

**Q.** What about the Kd (EfaUPPS (R42A) [2]) of the same compound?
**A.** 62.9 ± 25.4 µM

**Q.** And the “Kd fold higher than that of the wild-type” value (EfaUPPS (R42A) [2]; R42A vs wild-type)?
**A.** about 10 fold

**Q.** And the MIC ([3]; ATCC25922, 18 h)?
**A.** > 64 µg/mL

**Q.** And the MIC ([4]; ATCC29213, 18 h)?
**A.** 4 µg/mL (≈ 6.18 µM)

**Q.** What about the MIC ([5]; ATCC19117, 18 h) of the same compound?
**A.** 4 µg/mL (≈ 6.18 µM)

**Q.** What about the MIC ([6]; ATCC29212, 18 h) of the same compound?
**A.** 2 µg/mL (≈ 3.09 µM)

**Q.** And the MIC (MRSA)?
**A.** 4 µg/mL (≈ 6.18 µM)

**Q.** And the IC50 (EfaUPPS (L146A))?
**A.** ~30 µM

**Q.** What about the “effect of mutation on inhibitory effect of compound on EfaUPPS enzyme activity” value (EfaUPPS (L146A)) of the same compound?
**A.** significantly reduced

**Q.** What about the “IC50 fold higher than that of the wild-type” value (EfaUPPS (L146A)) of the same compound?
**A.** about 10 fold

**Q.** And the “TNF-α mRNA in spleen (qPCR)” value (E. faecalis infection)?
**A.** significant downregulation

**Q.** What about the “body weight of E. faecalis infection mice” value (E. faecalis infection) of the same compound?
**A.** no observable effect

**Q.** And the “spleen inflammation (H&E spleen slides)” value (E. faecalis infection)?
**A.** reduced signs of inflammation

**Q.** And the “splenomegaly (spleen weight)” value (E. faecalis infection)?
**A.** significantly relieved splenomegaly

**Q.** What about the “TNF-α-levels in serum (ELISA)” value (E. faecalis infection; vs E. faecalis group) of the same compound?
**A.** significantly reduced

**Q.** What about the MIC (Escherichia coli DH5α) of the same compound?
**A.** > 64 µg/mL

**Q.** And the MIC (Escherichia coli BAS 849; BAS849, 18 h)?
**A.** 8 µg/mL (≈ 12.4 µM)

**Q.** What about the MIC [7] of the same compound?
**A.** > 64 µg/mL

**Q.** What about the Kd (EfaUPPS (K47A)) of the same compound?
**A.** 65.9 ± 25.8 µM

**Q.** What about the “Kd fold higher than that of the wild-type” value (EfaUPPS (K47A); K47A vs wild-type) of the same compound?
**A.** about 10 fold

Reference: publication PMC9791066, “Investigations into the antibacterial effects and potential mechanism of gambogic acid and neogambogic acid” (Frontiers in Microbiology, 2022)
